Data as given in ChEMBL document CHEMBL1201862, “PubChem BioAssay data set” (2004).
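Method: 48-hour compound exposure of cells in 96-well plates, five concentrations, linear interpolation of endpoints. GI50: concentration for 50% inhibition of growth.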 Active and inactive are the calls of the source. Rule as the data show it: active = GI50 up to about 1.1 µM and inactive = higher.

Assays:
Assay in all cases: NCI anticancer screen, dose series, 48 h
CCRF-CEM = test system: CCRF-CEM
SNB-75 = test system: SNB-75
HCT-116 = test system: HCT-116
IGROV-1 = test system: IGROV-1
COLO 205 = test system: COLO 205
MDA-MB-435 = test system: MDA-MB-435
UO-31 = test system: UO-31
MDA-N = test system: MDA-N
BT-549 = test system: BT-549
SF-539 = test system: SF-539
OVCAR-5 = test system: OVCAR-5
SK-MEL-28 = test system: SK-MEL-28
T47D = test system: T47D
ACHN = test system: ACHN
MCF7 = test system: MCF7
EKVX = test system: EKVX
Hs-578T = test system: Hs-578T
DU-145 = test system: DU-145
NCI-H226 = test system: NCI-H226

| SMILES | GI50 (CCRF-CEM) | GI50 (SNB-75) | GI50 (HCT-116) | GI50 (IGROV-1) | GI50 (COLO 205) | GI50 (MDA-MB-435) | GI50 (UO-31) | GI50 (MDA-N) | GI50 (BT-549) | GI50 (SF-539) | GI50 (OVCAR-5) | GI50 (SK-MEL-28) | GI50 (T47D) | GI50 (ACHN) | GI50 (MCF7) | GI50 (EKVX) | GI50 (Hs-578T) | GI50 (DU-145) | GI50 (NCI-H226) |
| --- | --- | --- | --- | --- | --- | --- | --- | --- | --- | --- | --- | --- | --- | --- | --- | --- | --- | --- | --- |
| COC(=O)c1ccccc1C1CN=NC12Cc1cc3c(cc1C2=O)CCC3 (configuration not stated) | 29.2 µM (inactive) | 61.4 µM (inactive) | 36.3 µM (inactive) | > 100 µM (inactive) | 41.9 µM (inactive) | 44.5 µM (inactive) | 50.5 µM (inactive) | 40.7 µM (inactive) | > 100 µM (inactive) | > 100 µM (inactive) | > 100 µM (inactive) | > 100 µM (inactive) | 56.6 µM (inactive) | > 100 µM (inactive) | 49.8 µM (inactive) | 74.5 µM (inactive) | > 100 µM (inactive) | > 100 µM (inactive) | 80 µM (inactive) |
| CN(C)c1ccc(/C=C(\NC(=O)c2ccccc2)c2nc3ccccc3c(=O)o2)cc1 | > 100 µM (inactive) | > 100 µM (inactive) | > 100 µM (inactive) | > 100 µM (inactive) | > 100 µM (inactive) | > 100 µM (inactive) | > 100 µM (inactive) | 83.4 µM (inactive) | > 100 µM (inactive) | > 100 µM (inactive) | > 100 µM (inactive) | > 100 µM (inactive) | > 100 µM (inactive) | > 100 µM (inactive) | 70.5 µM (inactive) | > 100 µM (inactive) | > 100 µM (inactive) | > 100 µM (inactive) | > 100 µM (inactive) |
| O=C1CC2(CCC(O)(c3ccc(Cl)cc3)C(C(=O)c3ccc(Cl)cc3)C2)C(=O)c2ccccc2N1 (configuration not stated) | 4.61 µM (inactive) | 0.146 µM (active) | 6.17 µM (inactive) | > 26.3 µM (inactive) | 5.74 µM (inactive) | > 29.9 µM (inactive) | 17.6 µM (inactive) | 15.2 µM (inactive) | 19.7 µM (inactive) | 3.42 µM (inactive) | > 71 µM (inactive) | 4.53 µM (inactive) | 12.4 µM (inactive) | 3.64 µM (inactive) | 22.7 µM (inactive) | > 23.6 µM (inactive) | 1.48 µM (inactive) | 6.82 µM (inactive) | 12.7 µM (inactive) |
| COC1C(O)=C2C(=O)OC(C)(O)/C=C/C=C\C=C/C=C/C(c3ccccc3)NC(=O)/C=C/C=C/C=C/C=C/C2(C)C1O (configuration not stated) | 0.383 µM (active) | 0.028 µM (active) | 0.00403 µM (active) | 0.0165 µM (active) | 0.00124 µM (active) | 0.0193 µM (active) | 0.00984 µM (active) | 0.0275 µM (active) | 0.0128 µM (active) | 0.0179 µM (active) | 0.129 µM (active) | 0.0461 µM (active) | 0.0152 µM (active) | 0.00488 µM (active) | 0.001 µM (active) | 0.0118 µM (active) | 0.0419 µM (active) | 0.00533 µM (active) | 0.00646 µM (active) |
| O=[N+]([O-])c1cc2c(cc1/C=N/n1c(CO)nc3ccccc31)OCO2 | > 100 µM (inactive) | > 100 µM (inactive) | > 100 µM (inactive) | – | > 100 µM (inactive) | > 100 µM (inactive) | > 100 µM (inactive) | > 100 µM (inactive) | > 100 µM (inactive) | > 100 µM (inactive) | > 100 µM (inactive) | > 100 µM (inactive) | > 100 µM (inactive) | > 100 µM (inactive) | > 100 µM (inactive) | > 100 µM (inactive) | > 100 µM (inactive) | > 100 µM (inactive) | > 100 µM (inactive) |
| CC(=O)N1CC(=O)N2C(=O)/C(=C/c3ccc(Cl)cc3)N=C12 | 45 µM (inactive) | > 100 µM (inactive) | > 100 µM (inactive) | – | > 100 µM (inactive) | > 100 µM (inactive) | > 100 µM (inactive) | > 100 µM (inactive) | > 100 µM (inactive) | > 100 µM (inactive) | > 100 µM (inactive) | > 100 µM (inactive) | 53.1 µM (inactive) | > 100 µM (inactive) | 97.9 µM (inactive) | > 100 µM (inactive) | 30.9 µM (inactive) | > 100 µM (inactive) | > 100 µM (inactive) |
